Measurements published in patent US7749984B2, “Computer-based model for identification and characterization of non-competitive inhibitors of nicotinic acetylcholine receptors and related ligand-gated ion channel receptors” (priority 2003, dated 2010).
Read-outs that look alike come from different tables or passages of the source.

Key:
[1] = target: T1, α3β4 nAChR (Rattus norvegicus, UniProt P04757+P12392); experiment: biochemical; format: binding; parameters: host or cells: HEK293 (KXα3β4R2); details: for K′: chromatographic (NLC and van't Hoff); for ΔG° / ΔH° / ΔS°: chromatographic (van't Hoff)
T1 sequence (P04757 26-499): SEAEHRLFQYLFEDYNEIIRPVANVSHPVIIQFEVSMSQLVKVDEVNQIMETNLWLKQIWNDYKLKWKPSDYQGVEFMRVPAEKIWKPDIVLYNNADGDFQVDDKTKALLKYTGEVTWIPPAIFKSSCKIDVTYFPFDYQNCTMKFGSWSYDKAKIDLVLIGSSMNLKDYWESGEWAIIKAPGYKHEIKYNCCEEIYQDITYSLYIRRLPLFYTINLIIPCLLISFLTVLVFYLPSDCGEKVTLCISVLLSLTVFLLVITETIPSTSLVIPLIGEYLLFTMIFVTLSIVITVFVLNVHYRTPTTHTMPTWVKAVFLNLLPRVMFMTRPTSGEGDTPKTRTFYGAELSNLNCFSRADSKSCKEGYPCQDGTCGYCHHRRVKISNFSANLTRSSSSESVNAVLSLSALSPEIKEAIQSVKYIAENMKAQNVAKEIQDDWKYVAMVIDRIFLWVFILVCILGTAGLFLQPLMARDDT
T1 sequence (P12392 21-495): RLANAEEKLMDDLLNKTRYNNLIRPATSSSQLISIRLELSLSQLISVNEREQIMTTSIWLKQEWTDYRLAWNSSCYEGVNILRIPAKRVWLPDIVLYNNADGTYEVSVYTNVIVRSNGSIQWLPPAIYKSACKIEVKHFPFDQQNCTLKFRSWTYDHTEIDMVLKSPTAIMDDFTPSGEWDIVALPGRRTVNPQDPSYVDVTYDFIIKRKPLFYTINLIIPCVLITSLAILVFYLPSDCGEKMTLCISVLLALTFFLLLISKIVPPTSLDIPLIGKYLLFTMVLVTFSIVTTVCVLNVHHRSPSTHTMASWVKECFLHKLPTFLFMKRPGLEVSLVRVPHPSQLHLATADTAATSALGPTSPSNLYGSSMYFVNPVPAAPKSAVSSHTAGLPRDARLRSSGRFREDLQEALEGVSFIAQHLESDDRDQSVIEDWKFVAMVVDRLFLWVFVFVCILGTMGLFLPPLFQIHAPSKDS

[2] = target: T1, α3β4 nAChR; experiment: Nicotine-stimulated 86Rb+ efflux assay, KXα3β4R2 cell line; format: cell-based; parameters: host or cells: HEK293 (KXα3β4R2)
Experimental: After the prediction has been done based on clustering the actual values of IC50 were determined using the nicotine-stimulated ^86Rb^+ efflux assay on cell line KXα3β4R2.

[3] = target: T1, α3β4 nAChR; details: nicotine concentration of ~300 μM or higher; cited from earlier work
[4] = tested on: nAChR, SH-SY5Y cells; experiment: Rb+ efflux assay, SH-SY5Y cells; format: cell-based, human; details: cell line SH-SY5Y
[5] = tested on: nAChR, PC-12 cells; experiment: Rb+ efflux assay, PC-12 cells; format: cell-based, rat; details: cell line PC-12
[6] = target: K177 (α4β2) (Homo sapiens, UniProt P17787+P43681); experiment: Rb+ efflux assay, K177 cells
Sequence of K177 (α4β2) (P43681 27-627): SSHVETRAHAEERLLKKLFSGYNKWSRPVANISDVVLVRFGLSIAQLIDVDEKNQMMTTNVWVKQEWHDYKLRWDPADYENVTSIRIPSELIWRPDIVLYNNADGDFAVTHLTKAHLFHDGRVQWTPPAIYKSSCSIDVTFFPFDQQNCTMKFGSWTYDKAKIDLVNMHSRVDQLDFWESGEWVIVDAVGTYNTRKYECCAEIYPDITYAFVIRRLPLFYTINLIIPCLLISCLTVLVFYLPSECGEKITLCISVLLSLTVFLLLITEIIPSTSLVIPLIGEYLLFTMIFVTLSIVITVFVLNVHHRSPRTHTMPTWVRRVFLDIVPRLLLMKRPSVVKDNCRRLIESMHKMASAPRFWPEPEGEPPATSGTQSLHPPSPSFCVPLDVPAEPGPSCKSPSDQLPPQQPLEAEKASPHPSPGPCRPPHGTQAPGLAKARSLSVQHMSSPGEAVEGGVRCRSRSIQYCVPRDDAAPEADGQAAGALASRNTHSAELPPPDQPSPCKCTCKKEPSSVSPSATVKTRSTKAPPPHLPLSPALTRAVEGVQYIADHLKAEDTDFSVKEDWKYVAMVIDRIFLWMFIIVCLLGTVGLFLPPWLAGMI
Sequence of K177 (α4β2) (P17787 26-502): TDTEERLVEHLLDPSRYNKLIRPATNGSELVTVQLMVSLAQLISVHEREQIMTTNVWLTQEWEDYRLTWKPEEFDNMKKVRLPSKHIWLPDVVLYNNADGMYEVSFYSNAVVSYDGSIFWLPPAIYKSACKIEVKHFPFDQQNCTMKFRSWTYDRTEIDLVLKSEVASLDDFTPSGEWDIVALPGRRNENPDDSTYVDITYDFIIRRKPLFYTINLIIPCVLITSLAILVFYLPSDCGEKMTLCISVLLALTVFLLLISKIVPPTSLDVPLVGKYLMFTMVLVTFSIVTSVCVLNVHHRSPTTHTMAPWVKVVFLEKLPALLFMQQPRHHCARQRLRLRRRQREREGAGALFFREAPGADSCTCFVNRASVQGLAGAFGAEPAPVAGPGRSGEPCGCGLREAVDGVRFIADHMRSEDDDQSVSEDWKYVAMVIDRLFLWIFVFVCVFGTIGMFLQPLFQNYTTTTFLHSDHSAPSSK

[7] = IC50, nicotine-stimulated 86Rb+ efflux, cell line KXα3β4R2
[8] = IC50, nicotine-stimulated 86Rb+ efflux, α3β4 nAChR
[9] = IC50 of Rb+ efflux, cell line KXα3β4R2
[10] = α3β4 nAChR, NLC, read-out: koff dissociation constant rate
[11] = α3β4 nAChR, NLC, read-out: kon association constant rate
[12] = α3β4 nAChR, NLC, read-out: log K chromatographic equilibrium constant (converted)
[13] = α3β4 nAChR, 10 μM, 20 μl injected, ammonium acetate 10 mM pH 7.4/methanol 85:15
[14] = nicotine-stimulated 86Rb+ efflux, cell line KXα3β4R2, read-out: IC50
[15] = chromatographic (NLC), read-out: Koff
[16] = chromatographic (NLC), read-out: Kon
[17] = chromatographic (NLC), read-out: logKa (converted)
[18] = IC50, nicotine stimulated Rb+ efflux

Row | Structure (SMILES) | koff [1, 10] | kon [1, 11] | Kd [1, 12] | k′(NLC) retention capacity factor [1, 13] | other results
1 | COc1ccc(CCNCCCC(C#N)(c2ccc(OC)c(OC)c2)C(C)C)cc1OC (stereo not drawn) [nor-verapamil] |  |  |  |  | enantioselectivity of binding towards nicotinic affinity column ([1]; chromatographic experiments and NLC data): did not exhibit noticeable differences between enantiomers; logk′ ([1]; α3β4 nAChR): 1.99; IC50 [2, 7]: 2600 nM; IC50 [2, 8]: 2100 nM; IC50 [2, 9]: 2600 nM
2 | COc1ccc(CCNCCCC(C#N)(c2ccc(OC)c(OC)c2)C(C)C)cc1OC (single isomer, unassigned) [nor-verapamil-R, nor-verapamil] | 0.58 s⁻¹ | 1.6e+07 M⁻¹ s⁻¹ | 36.3 nM | 97.99 | 
3 | CNC1(C)C2CCC(C2)C1(C)C (stereo not drawn) [mecamylamine] |  |  |  |  | k′(NLC) retention capacity factor ([1]; pH 7.4): 10.89
4 | COC(=O)C1=C(C)NC(C)=C(C(=O)OCCN(C)Cc2ccccc2)C1c1cccc([N+](=O)[O-])c1 (stereo not drawn) [nicardapine] |  |  |  |  | logk′ ([1]; α3β4 nAChR): 2.33; IC50 [2, 14]: 2500 nM
5 | CN(C)CCN1C(=O)[C@H](O)[C@H](c2ccc(O)cc2)Sc2ccccc21 [Compound M4] |  |  |  |  | logk′ ([1]; α3β4 nAChR): 1.45; IC50 [2, 14]: 73200 nM
6 | CN1CCCC1c1cccnc1 (stereo not drawn) [nicotine] |  |  |  |  | maximum 86Rb+ efflux [3]: ~45 % of the amount loaded
7 | COc1ccc2c(c1)[C@@]13CCCC[C@H]1[C@@H](C2)N(C)CC3 [levomethorphan] | 1.55 s⁻¹ | 1.86e+07 M⁻¹ s⁻¹ | 83.2 nM | 35.81 | K′ [1]: 35.81 (±0.15); Ka ([1]; chromatographic (NLC)): 12.01 (±0.23) μM^−1; koff [1, 15]: 1.55 s⁻¹; kon [1, 16]: 1.86e+07 M⁻¹ s⁻¹; Kd [1, 17]: 83.2 nM; ΔG° [1]: −2.04 (±0.4) kcal mol^−1; ΔH° [1]: −6.59 (±0.18) kcal mol^−1; ΔS° [1]: −15.20 (0.6) cal mol^−1T^−1; IC50 [2, 18]: 10900 nM; IC50 [2, 9]: 10900 nM
8 | COc1ccc(CCN(C)CCCC(C#N)(c2cc(OC)c(OC)c(OC)c2)C(C)C)cc1OC (stereo not drawn) [galapamil] |  |  |  | 75.93 | logk′ ([1]; α3β4 nAChR): 1.88; koff dissociation constant rate ([1]; α3β4 nAChR, NLC): 0.74 s⁻¹; log K chromatographic equilibrium constant ([1]; α3β4 nAChR, NLC): 7.43 M^−1; IC50 [2, 14]: 6400 nM
9 | c1ccc(C2(N3CCCCC3)CCCCC2)cc1 [phenylcyclidine] | 2.69 s⁻¹ | 2.32e+07 M⁻¹ s⁻¹ | 115 nM | 24.06 | IC50 [4]: 5900 nM; IC50 [2, 9]: 7000 nM
10 | CNCCCC(C#N)(c1ccc(OC)c(OC)c1)C(C)C [Compound D-617] |  |  |  | 22.22 | koff dissociation constant rate ([1]; α3β4 nAChR, NLC): 2.72 s⁻¹; log K chromatographic equilibrium constant ([1]; α3β4 nAChR, NLC): 6.74 M^−1
11 | CNCCN1C(=O)[C@H](OC(C)=O)[C@H](c2ccc(OC)cc2)Sc2ccccc21 [MA] |  |  |  |  | logk′ ([1]; α3β4 nAChR): 1.61; IC50 [2, 14]: 4200 nM
12 | COc1ccc(C(C#N)(CCCN)C(C)C)cc1OC [Compound D-620] |  |  |  | 17.72 | logk′ ([1]; α3β4 nAChR): 1.25; koff dissociation constant rate ([1]; α3β4 nAChR, NLC): 3.43 s⁻¹; log K chromatographic equilibrium constant ([1]; α3β4 nAChR, NLC): 6.53 M^−1; IC50 [2, 14]: 48900 nM
13 | CC[n+]1c(-c2ccccc2)c2cc(N)ccc2c2ccc(N)cc21 [ethidium] | 0.18 s⁻¹ | 3.59e+07 M⁻¹ s⁻¹ | 5.01 nM | 191.82 | 
14 | COc1ccc([C@@H]2Sc3ccccc3N(CCN(C)C)C(=O)[C@@H]2OC(C)=O)cc1 [dilthiazem] |  |  |  | 43.53 | logk′ ([1]; α3β4 nAChR): 1.64; koff dissociation constant rate ([1]; α3β4 nAChR, NLC): 1.60 s⁻¹; log K chromatographic equilibrium constant ([1]; α3β4 nAChR, NLC): 7.22 M^−1; IC50 ([2]; cell line KXα3β4R2, read-out: IC50 of Rb+ efflux): 2260 nM; IC50 [2, 14]: 2200 nM; IC50 ([2]; nicotine-stimulated 86Rb+ efflux, α3β4 nAChR, read-out: IC50): 2300 nM
15 | C[C@]12N[C@H](Cc3ccccc31)c1ccccc12 [MK-801] | 3.48 s⁻¹ | 2.71e+07 M⁻¹ s⁻¹ | 129 nM | 19.10 | 
16 | COc1ccc(C(=O)O)cc1OC [dimethoxybenzoic ac., 3,4-dimethoxybenzoic acid] | 18.2 s⁻¹ | 9.8e+06 M⁻¹ s⁻¹ | 1860 nM | 4.46 | 
17 | COc1ccc(CCNCCCC(C#N)(c2ccc(OC)c(OC)c2)C(C)C)cc1OC (single isomer, unassigned) [nor-verapamil-S, nor-verapamil] |  |  | 39.8 nM | 97.86 | koff dissociation constant rate ([1]; α3β4 nAChR, NLC): 0.61 s⁻¹

Row | Structure (SMILES) | koff [1, 10] | kon [1, 11] | Kd [1, 12] | k′(NLC) retention capacity factor [1, 13] | other results
18 | CNCCN1C(=O)[C@H](O)[C@H](c2ccc(O)cc2)Sc2ccccc21 [Compound M6] |  |  |  |  | logk′ ([1]; α3β4 nAChR): 1.48; IC50 [2, 14]: 63100 nM
19 | CCCCC1C(=O)N(c2ccccc2)N(c2ccccc2)C1=O [phenylbutazone] | 22.2 s⁻¹ | 8.7e+06 M⁻¹ s⁻¹ | 2570 nM |  | 
20 | CN[C@@H](C)Cc1ccccc1 [methamphetamine] | 6.81 s⁻¹ | 2.91e+07 M⁻¹ s⁻¹ | 234 nM | 8.38 | 
21 | NC12CC3CC(CC(C3)C1)C2 [amantadine] | 6.73 s⁻¹ | 3.08e+07 M⁻¹ s⁻¹ | 219 nM | 8.98 | 
22 | COc1ccc2c(c1)[C@@]13CCCC[C@H]1[C@@H](C2)NCC3 [3 MM] |  |  |  | 56.47 | koff dissociation constant rate ([1]; α3β4 nAChR, NLC): 1.00 s⁻¹; log K chromatographic equilibrium constant ([1]; α3β4 nAChR, NLC): 7.28 M^−1
23 | CNC1(c2ccccc2Cl)CCCCC1=O (stereo not drawn) [ketamine] | 8.5 s⁻¹ | 3.84e+07 M⁻¹ s⁻¹ | 224 nM | 8.25 | IC50 [4]: 1400 nM; IC50 [5]: 5200 nM
24 | CC(=O)Nc1ccccc1 [acetanilide] | 25.5 s⁻¹ | 8.2e+06 M⁻¹ s⁻¹ | 3090 nM | 5.95 | 
25 | CC(NC(C)(C)C)C(=O)c1cccc(Cl)c1 (stereo not drawn) [bupropion] | 5.14 s⁻¹ | 2.87e+07 M⁻¹ s⁻¹ | 178 nM | 12.97 | IC50 [4]: 1400 nM
26 | O=C(O)c1ccc([N+](=O)[O-])cc1[N+](=O)[O-] [dinitrobenzoic acid, 2,4-dinitrobenzoic acid] |  |  |  | 7.77 | Kd ([1]; log K chromatographic equilibrium constant, α3β4 nAChR, NLC): 1350 nM; koff dissociation constant rate ([1]; α3β4 nAChR, NLC): 12.12 s⁻¹
27 | CCC(=O)C(CC(C)N(C)C)(c1ccccc1)c1ccccc1 (stereo not drawn) [methadone] | 1.37 s⁻¹ | 1.59e+07 M⁻¹ s⁻¹ | 87.1 nM | 44.45 | IC50 [2, 9]: 1900 nM
28 | CN1CC[C@@]23CCCC[C@@H]2[C@@H]1Cc1ccc(O)cc13 [dextrorphan] | 2.3 s⁻¹ | 2.07e+07 M⁻¹ s⁻¹ | 112 nM |  | 
29 | CC12CC3CC(C)(C1)CC(N)(C3)C2 [memantine] | 3.45 s⁻¹ | 1.88e+07 M⁻¹ s⁻¹ | 182 nM | 16.71 | IC50 [6]: 6600 nM
30 | CCOC(=O)C1=C(COCCN)NC(C)=C(C(=O)OC)C1c1ccccc1Cl (stereo not drawn) [amlodipine] |  |  |  |  | IC50 [2, 7]: 5800 nM
31 | COc1ccc2c(c1)[C@]13CCCC[C@@H]1[C@H](C2)N(C)CC3 [dextromethorphan] | 1.01 s⁻¹ | 2.37e+07 M⁻¹ s⁻¹ | 42.7 nM | 61.30 | difference in ΔG of the complexes ([1]; DM vs LM, chromatographic experiments): 0.3 kcal/mol; K′ [1]: 61.30 (±0.27); Ka ([1]; chromatographic (NLC)): 23.40 (±0.36) μM^−1; koff [1, 15]: 1.01 s⁻¹; kon [1, 16]: 2.37e+07 M⁻¹ s⁻¹; Kd [1, 17]: 42.7 nM; ΔG° [1]: −2.33 (±0.4) kcal mol^−1; ΔH° [1]: −6.92 (±0.19) kcal mol^−1; ΔS° [1]: −15.70 (±0.7) cal mol^−1T^−1; IC50 [2, 18]: 10100 nM; IC50 [2, 8]: 10000 nM; IC50 [2, 9]: 10100 nM
32 | COc1ccc(CC2c3cc(OC)c(OC)cc3CCN2C)cc1OC (stereo not drawn) [laudanosine] | 2.18 s⁻¹ | 2.5e+07 M⁻¹ s⁻¹ | 87.1 nM | 22.87 | 
33 | CC(=O)Nc1ccc(O)cc1 [acetaminophen] | 17.2 s⁻¹ | 8.4e+06 M⁻¹ s⁻¹ | 2040 nM | 5.30 | 
